Data as given in the supplement of paper PMC4862054.
Where “and” joins values, the source holds several entries; their conditions need not be identical. Identical values can stand only once.

Tests used:
Conditions in all cases: incubation time: 72 h
[1] = tested on: MDA-MB-231; test: drug sensitivity score (DSS), CellTox Green (DSS (AUC-based score)); higher = stronger drug effect (viability inhibition or cytotoxicity); extreme values may be limits of the assay
Outline: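 Breast cancer cell lines, seeded as 20 µl suspension, were incubated 72 h with compound in 384-well plates at 5 concentrations in 10-fold steps over a 10,000-fold range set for each compound. Fluorescence from CellTox Green was read at 485/520 nm before CellTiter-Glo luminescence, which was read after 10 min at room temperature. Every plate was normalised to 0.1 % DMSO and a positive kill control, and the drug sensitivity score was taken from the area under the fitted dose-response curve.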

[2] = tested on: SK-BR-3; test: drug sensitivity score (DSS), CellTiter-Blue viability (DSS (AUC-based score)); higher = stronger viability inhibition; extreme values may be limits of the assay
Outline: (§1)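 Breast cancer cell lines in 20 µl suspension were seeded into 384-well plates already holding compound in a 5- or 9-concentration series and incubated for 72 h. CellTiter-Blue reagent (2.5 µl per well) was then added for 2 h at 37 °C, and fluorescence was read at 560/590 nm. Values on each plate were normalised to 0.1 % DMSO and a positive kill control. The drug sensitivity score is the area under the fitted dose-response curve.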

[3] = tested on: MDA-MB-468; test: as above
Outline: as §1

[4] = tested on: Hs578T; test: normalised viability (% of control), CellTiter-Blue; higher = more viable cells (about 100 = DMSO control)
Outline: (§2)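 The reported quantity is normalised viability at a single listed concentration of the series. Compound in 5 µl medium was pre-dispensed into 384-well plates and 20 µl of breast cancer cell suspension was added for 72 h. A 2 h, 37 °C CellTiter-Blue step (2.5 µl) preceded fluorescence reading at 560/590 nm, and plates were normalised to vehicle (100) and a positive kill control (0).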

[5] = tested on: HCC1599; test: as above
Outline: as §2

[6] = tested on: MDA-MB-231; test: as above
Outline: as §2

[7] = tested on: MDA-MB-436; test: as above
Outline: as §2

[8] = tested on: BT-549; test: as above
Outline: as §2

[9] = tested on: HCC1143; test: as above
Outline: as §2

[10] = tested on: CAL-85-1; test: as above
Outline: as §2

[11] = tested on: MDA-MB-453; test: as above
Outline: as §2

[12] = tested on: HCC1937; test: as above
Outline: as §2

[13] = tested on: CAL-120; test: as above
Outline: as §2

[14] = tested on: SK-BR-3; test: as above
Outline: as §2

[15] = tested on: CAL-148; test: as above
Outline: as §2

[16] = tested on: MFM-223; test: as above
Outline: as §2

[17] = tested on: HDQ-P1; test: as above
Outline: as §2

[18] = tested on: CAL-51; test: as above
Outline: as §2

[19] = tested on: MDA-MB-468; test: as above
Outline: as §2

[20] = tested on: DU-4475; test: as above
Outline: as §2

[21] = tested on: BT-474; test: as above
Outline: as §2

CCc1c2c(nc3ccc(OC(=O)N4CCC(N5CCCCC5)CC4)cc13)-c1cc3c(c(=O)n1C2)COC(=O)[C@]3(O)CC [Irinotecan]
drug sensitivity score [1]: 0 | drug sensitivity score [2]: 6.6 and 2.45 | drug sensitivity score [3]: 6.9 and 5.16 | normalised viability ([4]; 10 nM): 98.6% and 100% | normalised viability ([4]; 1000 nM): 83% and 95.2% | normalised viability ([5]; 10 nM): 81.2% and 102% | normalised viability ([5]; 1000 nM): 74.3% and 81.7% | normalised viability ([5]; 10000 nM): 57.8% and 78.1% | normalised viability ([6]; 10 nM): 85.2% and 94.5% | normalised viability ([6]; 1000 nM): 84.7% and 89.4% | normalised viability ([6]; 10000 nM): 72.8% and 78.7% | normalised viability ([7]; 10 nM): 89.1% and 93% | normalised viability ([7]; 1000 nM): 79.6% and 92.3% | normalised viability ([8]; 10 nM): 80.8% and 86% | normalised viability ([8]; 1000 nM): 82.2% and 84.3% | normalised viability ([8]; 10000 nM): 71% and 62% | normalised viability ([9]; 10 nM): 74.2% and 87.3% | normalised viability ([9]; 1000 nM): 91.4% and 95.9% | normalised viability ([9]; 10000 nM): 47.7% and 62.6% | normalised viability ([10]; 3 nM): 94.6% and 96.1% | normalised viability ([10]; 30 nM): 78.8% and 92.5% | normalised viability ([10]; 100 nM): 86.4% and 103% | normalised viability ([11]; 3 nM): 101% and 124% | normalised viability ([11]; 30 nM): 85.5% and 96.2% | normalised viability ([11]; 100 nM): 99.8% and 110% | normalised viability ([12]; 10 nM): 110% and 91.4% | normalised viability ([12]; 1000 nM): 54.7% and 60.4% | normalised viability ([12]; 10000 nM): 27.8% and 10.4% | normalised viability ([13]; 10 nM): 83.3% and 96.8% | normalised viability ([13]; 1000 nM): 68.2% and 89.1% | normalised viability ([13]; 10000 nM): 47.4% and 55.8% | normalised viability ([14]; 10 nM): 92.4% and 108% | normalised viability ([14]; 10000 nM): 36.6% and 41.3% | normalised viability ([15]; 3 nM): 77.4% and 98.8% | normalised viability ([15]; 30 nM): 90.3% and 101% | normalised viability ([15]; 100 nM): 80.5% and 99.7% | normalised viability ([16]; 10 nM): 88.5% and 97% | normalised viability ([16]; 1000 nM): 100% and 99.8% | normalised viability ([17]; 3 nM): 109% and 101% | normalised viability ([17]; 30 nM): 99.4% and 104% | normalised viability ([17]; 100 nM): 99.8% and 101% | normalised viability ([18]; 3 nM): 106% and 120% | normalised viability ([18]; 30 nM): 99% and 110% | normalised viability ([18]; 100 nM): 98.4% and 106% | normalised viability ([19]; 10 nM): 106% and 105% | normalised viability ([19]; 1000 nM): 76% and 87.3% | normalised viability ([19]; 10000 nM): 35.5% and 42.8% | normalised viability ([20]; 3 nM): 111% and 115% | normalised viability ([20]; 30 nM): 87.3% and 103% | normalised viability ([20]; 100 nM): 101% and 93.7% | normalised viability ([21]; 10 nM): 102% and 114% | normalised viability ([21]; 1000 nM): 106% and 109% | normalised viability ([21]; 10000 nM): 97.2% and 105%

COC(=O)c1ccc2c(c1)NC(=O)/C2=C(\Nc1ccc(N(C)C(=O)CN2CCN(C)CC2)cc1)c1ccccc1 [Nintedanib]
drug sensitivity score [1]: 7.47

CNC(=O)c1ccc(N2C(=S)N(c3ccc(C#N)c(C(F)(F)F)c3)C(=O)C23CCC3)cc1F [RD162]
drug sensitivity score [1]: 0
